Marks after values point to notes of the source that are not given here.
Columns and labels:
[1] = test system: peripheral blood lymphocytes; experiment: Chernobyl Protocol F: L-Glu-L-Trp at 3 years post-radiation exposure; assay type: in vivo, human
Protocol: An increased incidence of cancer is one sequelae known to occur in subjects exposed to radiation, presumably because of decreased immune surveillance and elimination of tumor cells. […] An attempt to normalize immune parameters was attempted in 70 of the latter patients exposed 3 years previously to 0.2-0.5 Gy of radiation at Chernobyl. […] The subjects were treated with L-Glu-L-Trp in an attempt to alleviate the immune defects. The treatment course consisted of daily doses of 100 μg L-Glu-L-Trp administered im for 3-5 days. Sixty three subjects, similarly exposed to radiation in Chernobyl were used as untreated controls.

influenza = experiment: Influenza treatments (Protocol E); set-up: species or system human; conditions: in vivo
Protocol: One hundred fifty-six patients (156) with influenza were treated with 100 μg L-Glu-L-Trp im or 1 μg/kg intranasally on each of 5-10 consecutive days. A control group constituted with entry of 82 influenza patients who remained untreated.

[2] = Acute osteomyelitis / soft tissue inflammation in children (Protocol C); assay type: in vivo, human
Protocol: Seventeen hospitalized children (10 boys and 7 girls) were entered into this protocol: 6 with acute inflammatory diseases of soft tissues (abscesses, phlegmons), 4 with odotogenous osteomyelitis of the jaw, and 7 with hematogenous osteomyelitis of the flat and tubular bones. In 11 children, the course of the illness was acute and in 6 it was subacute and chronic.
L-Glu-L-Trp was administered in combination therapy with conventional antibiotic therapies. Where necessary, surgery was performed to drain infectious foci in the jaw or soft tissues, affected teeth were extracted, and for osteomyelitis a port was drilled for infusion of antibiotics. Physical examination and laboratory testing was conducted before administering L-Glu-L-Trp and 2-3 days after the treatment.
Laboratory tests were conducted to determine clinical chemistry and protein values prior to and after therapy (i.e., including the concentrations of bilirubin, creatinine, albumin, cholesterol, urea nitrogen, glucose, protein, chloride, potassium, phosphorus, calcium, sodium, alkaline phosphatase, α1-orosomucoid, α2-macroglobulin, prealbumin, ceruloplasmin, and transferrin). While urea nitrogen and cholesterol decreased slightly after therapy, these and all other changes observed after L-Glu-L-Trp treatment were not statistically significant.

[3] = Chronic primary gastritis and gastro-duodenitis; assay type: in vivo, human
Source text: Twenty two patients (all men aged 18-30 years) suffering from chronic primary gastritis and gastro-duodenitis were entered into the trial. Diagnosis was based on physical examination, and clinical and laboratory investigations including roentgenoscopy and endoscopic examination of the stomach and duodenum. Patient entry criteria was further conditioned on the results of laboratory tests for i) pre-treatment immune indices (i.e., numbers of lymphocytes, T-, and B-lymphocytes, etc.; TABLE 46) and ii) the in vitro sheep red blood cell rosette forming response of T-lymphocytes to L-Glu-L-Trp, (i.e., whether in vitro incubation of patient peripheral blood lymphocytes with L-Glu-L-Trp increased the percentage of E-RFC). […] These twelve patients were entered into the trial.
For determining normal values, the control group consisted of 28 normal healthy volunteers aged 17-23.
Patients received L-Glu-L-Trp im daily at a dosage of 100 μg for 5 days in combination with their conventional ongoing treatment.

[4] = test system: antibody-producing cells in spleen; experiment: Antibody plaque forming cell response to sheep red blood cells (Jerne); assay type: in vivo, (CBAxC57B1/6) F1 mice; conditions: for PFC/10^6 splenocytes / PFC/Spleen / Spleen weight/Body weight / Splenocytes per Spleen: s-rbc immunized mice, day 5
[5] = DTH sensitization to Oxazolone (ear thickness); assay type: in vivo, mice; conditions: for Mean Ear Thickness ± S.D.: challenge day 7, measured at 24 hours
Protocol: Effects of L-Glu-L-Trp treatments on cell mediated immunity were evaluated by testing its effects on induction of a delayed-type hypersensitivity response in two different studies involving sensitization of mice to Oxazolone and guinea pigs to tuberculin.
In the first study L-Glu-L-Trp was administered ip at a dose of 10 μg/kg, or 1000 μg/kg one hour before a sensitizing dose of Oxazolone (0.1 mL of a 5% solution) was applied to the abdominal surface of a mouse. Seven days later skin sensitivity was measured by administering 25 μL of a 2% oxazolone solution to the right mouse ear and a sample of the diluent solution, as a control, to the left ear. Ear thickness was measured at 24 hours using a Dyer Model micrometer.

[6] = children, After L-Glu-L-Trp Therapy (2-3 days after treatment)
[7] = After L-Glu-L-Trp Combination Therapy

L-Glu-L-Trp
B-Ig+, % ([1]; After L-Glu-L-Trp): 11.0 ± 0.3%
B-Ig+, abs ([1]; After L-Glu-L-Trp): 0.23 ± 0.04 10^9/L
B-IgA+, % ([1]; After L-Glu-L-Trp): 1.9 ± 0.3%
B-IgA+, abs ([1]; After L-Glu-L-Trp): 0.04 ± 0.002 10^9/L
B-IgG+, % ([1]; After L-Glu-L-Trp): 4.8 ± 0.5%
B-IgG+, abs ([1]; After L-Glu-L-Trp): 0.09 ± 0.007 10^9/L
B-IgM+, % ([1]; After L-Glu-L-Trp): 4.1 ± 0.6 %
B-IgM+, abs ([1]; After L-Glu-L-Trp): 0.12 ± 0.003** 10^9/L
CD2-DR+, % ([1]; After L-Glu-L-Trp): 32 ± 3 %
CD2-DR+, abs ([1]; After L-Glu-L-Trp): 0.66 ± 0.10** 10^9/L
CD3, % ([1]; After L-Glu-L-Trp): 59.2 ± 2.1 %
CD3, abs ([1]; After L-Glu-L-Trp): 1.21 ± 0.15 10^9/L
CD4, % ([1]; After L-Glu-L-Trp): 36.2 ± 1.7%
CD4, abs ([1]; After L-Glu-L-Trp): 0.74 ± 0.08 10^9/L
CD8, % ([1]; After L-Glu-L-Trp): 23.2 ± 2.1 %
CD8, abs ([1]; After L-Glu-L-Trp): 0.48 ± 0.07** 10^9/L
IgA ([1]; After L-Glu-L-Trp): 1.2 ± 0.4 g/L
IgG ([1]; After L-Glu-L-Trp): 10.9 ± 1.3 g/L
IgM ([1]; After L-Glu-L-Trp): 1.06 ± 0.06 g/L
LMI, % ([1]; After L-Glu-L-Trp): 75 ± 6 %
Leukocytes, abs ([1]; After L-Glu-L-Trp): 5.6 ± 0.4 10^9/L
Lymphocytes, abs ([1]; After L-Glu-L-Trp): 2.1 ± 0.3 10^9/L
T4/T8 ([1]; After L-Glu-L-Trp): 1.58 ± 0.04
Cases with restoration of CD2+ counts ([1]; in vivo): 85%
Clinical outcome ([1]; in vivo): disappearance of symptoms associated with the asthenic syndrome
Clinical outcome (influenza): accelerated alleviation of symptoms associated with influenza infection
B-Lymphocytes: % of PBL [2, 6]: 15.1 ± 3.32 % of PBL
B-Lymphocytes: No. [2, 6]: 0.41 ± 0.11 10^9/L
C3 [2, 6]: 0.72 ± 0.05 g/L
IgA [2, 6]: 1.68 ± 0.18 g/L
IgG [2, 6]: 14.4 ± 1.31 g/L
IgM [2, 6]: 1.64 ± 0.26 g/L
LMIR: % Con A [2, 6]: 49.7 ± 13.7 %
LMIR: % PHA [2, 6]: 47.7 ± 11.2 %
Leukocytes [2, 6]: 7.0 ± 0.4^† 10^9/L
Lymphocytes: % of PBL [2, 6]: 43 ± 3.61 % of PBL
Lymphocytes: No. [2, 6]: 3.15 ± 0.41 10^9/L
Neutrophils [2, 6]: 3.4 ± 0.33 ×10^9/L
Neutrophils: % PBL [2, 6]: 50 ± 4.8 % PBL
Null-Lymphocytes: % of PBL [2, 6]: 18.7 ± 4.68 % of PBL
Null-Lymphocytes: No. [2, 6]: 0.42 ± 0.11^† 10^9/L
T-Lymphocytes: % of Lym [2, 6]: 66.2 ± 2.57 % of Lym
T-Lymphocytes: No. [2, 6]: 1.7 ± 0.3 10^9/L
T-helper (Etr-RFC): % of Lym [2, 6]: 57.3 ± 6.34 % of Lym
T-helper (Etr-RFC): No. [2, 6]: 1.4 ± 0.24 10^9/L
T-suppressor: % of Lym [2, 6]: 8.8 ± 5.4 % of Lym
T-suppressor: No. [2, 6]: 0.3 ± 0.2 10^9/L
Wounds cleaned and granulated earlier than usual ([2]; in vivo): 2 to 3 days
B-Lymphocytes [3, 7]: 0.14 ± 0.02 ×10^9/L
B-Lymphocytes % Normal Value [3, 7]: (97%)
B-Lymphocytes (%) [3, 7]: 7.2 ± 1.5%
Null Lymphocytes [3, 7]: 0.9 ± 0.05 ×10^9/L
Null Lymphocytes % Normal Value [3, 7]: (145%)
Null Lymphocytes (%) [3, 7]: 37.3 ± 2.0 %
T-Lymphocytes [3, 7]: 1.04 ± 0.04 ×10^9/L
T-Lymphocytes % Normal Value [3, 7]: (96%)
T-Lymphocytes (%) [3, 7]: 55.4 ± 2.1 %
Clinical outcome ([3]; in vivo): more rapid recovery
Increase of frequency of PFC per 10^6 splenocytes ([4]; 1 μg/kg): 2.8 fold
Increase of number of PFC in spleen over saline control ([4]; 1 μg/kg): 2.7 fold
PFCs per spleen vs saline control ([4]; 10 μg/kg): 1.8 fold
PFCs per spleen vs saline control ([4]; 100 μg/kg): 1.6 fold
PFC/10^6 splenocytes ([4]; 1 μg/kg): 69.2 ± 11.3
PFC/Spleen ([4]; 1 μg/kg): 11722 ± 2005
Spleen weight/Body weight ([4]; 1 μg/kg): 0.42 ± 0.01
Splenocytes per Spleen ([4]; 1 μg/kg): 168.6 ± 3.6 ×10^6
PFC/10^6 splenocytes ([4]; 10 μg/kg): 48.8 ± 9
PFC/Spleen ([4]; 10 μg/kg): 7854 ± 1631
Spleen weight/Body weight ([4]; 10 μg/kg): 0.43 ± 0.01
Splenocytes per Spleen ([4]; 10 μg/kg): 159 ± 8.5 ×10^6
PFC/10^6 splenocytes ([4]; 100 μg/kg): 41.7 ± 6
PFC/Spleen ([4]; 100 μg/kg): 6731 ± 1027
Spleen weight/Body weight ([4]; 100 μg/kg): 0.44 ± 0.02
Splenocytes per Spleen ([4]; 100 μg/kg): 162.6 ± 6 ×10^6
Mean Ear Thickness ± S.D. ([5]; 10 μg/kg ip one hour before Oxazolone sensitization): 17 ± 1 μm
DTH sensitivity ([5]; 1000 μg dose one hour prior to antigen): increase in DTH sensitivity to oxazolone
Mean Ear Thickness ± S.D. ([5]; 1000 μg/kg ip one hour before Oxazolone sensitization): 24 ± 1 μm

Source: patent US6368788B1 (priority 1987, dated 2002)
